Measured values as given in PubChem BioAssay AID720570 (Broad Institute, 2013).
Several values for one entry are separate records, joined by “and”; a condition that tells them apart may be missing. Equal entries are not always repeated. Activity calls are given as the source filed them.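 Rule for the calls: active = cell-killing curve crosses a set limit at a concentration no more than twice the top valid dose; inconclusive = flat curve with a 30 to 70% loss, or a poor fit; inactive = signal rising instead of falling, and the rest.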

Test system: TC71 Ewing sarcoma viability, CellTiter-Glo ATP, 72 h
Test: cytotoxicity in EWS/Fli1-dependent TC71 cells – cell-based, luminescence, cherry-picked samples, retest, confirmation (AID 720570)
Conditions: not given

Point of comparison: Oc1[nH]c2ccc(Br)cc2c1N=NC(=S)N1CCOCC1, AC35 2.87 µM. Against it:
- C=C1C(=O)[C@@]23[C@H](O)C[C@@H]4C(C)(C)CC[C@H](O)[C@@]4(C)[C@@H]2CC[C@@H]1[C@H]3O — 3.2-fold higher, 9.15 µM
- CN(C)c1ncnc2c1ccn2C1OC(CO)C(O)C1O (stereo unspecified) — 2.5-fold higher, 7.06 µM
- Cc1ccccc1NC(=O)C(=Cc1ccc(C(=O)O)cc1)C(=O)Nc1ccccc1C — 2.3-fold higher, 6.67 µM
- Oc1c(C(c2ccc(Cl)cc2)N2CCCC2)cc(Cl)c2cccnc12 (stereo unspecified) — 2.2-fold higher, 6.32 µM
- COc1ccc(CN(C)c2ncnc3sccc23)c(OC)c1OC — 5.6-fold higher, 16.2 µM
- CCc1ccc2oc(C(=O)N3CCN(c4ccccc4OC)CC3)cc(=O)c2c1 — 4.4-fold higher, 12.6 µM
- Cc1cc(C(=O)Nc2ccc3c(c2)C(=O)N(C)[C@@H]2CC[C@H](CC(=O)N[C@H](C)c4ccccc4)O[C@H]2CO3)no1 — 4.9-fold higher, 14 µM
- Cc1cc(C)cc(N2C(=O)NC(=O)/C(=C\C=C\c3ccco3)C2=O)c1 — 3.9-fold higher, 11.3 µM
- C[C@@H]1CN([C@H](C)CO)C(=O)c2cc(N(C)C)ccc2O[C@H]1CN(C)Cc1ccc(C(=O)Nc2ccccc2N)cc1 — 4.4-fold higher, 12.5 µM
- CCc1nc(N)nc(N)c1-c1ccc(Cl)c(N=[N+]=[N-])c1 — within 1.5-fold, 3.56 µM
- CCN1C/C(=C/c2ccc(OC)c(O)c2)C(=O)/C(=C/c2ccc(OC)c(O)c2)C1 — 8-fold higher, 22.9 µM
- O=C1NC(=O)N(Cc2ccco2)C(=O)/C1=C/C=C/c1ccco1 — 4.4-fold higher, 12.5 µM
- C[C@@H]1CN([C@@H](C)CO)C(=O)c2cccc(NS(=O)(=O)c3ccc(Cl)cc3)c2O[C@@H]1CN(C)Cc1ccc(C(=O)Nc2ccccc2N)cc1 — 3.4-fold higher, 9.9 µM
- O=C(C[C@@H]1C[C@H]2c3cc(NS(=O)(=O)c4ccc(F)cc4)ccc3O[C@H]2[C@H](CO)O1)NCc1ccc(-c2ccccc2)cc1 — 1.5-fold lower, 1.91 µM
- CCCCc1c(-c2ccccc2OC)ncn1Cc1ccc(C(C)(C)C)cc1 — 4.6-fold higher, 13.1 µM
- COc1ccc(S(=O)(=O)N2CCCc3nc(-c4ccc(F)cc4)ccc32)cc1 — 2.5-fold higher, 7.3 µM
- C[C@@H]1CN([C@H](C)CO)C(=O)c2cc(NC(=O)c3ccccc3)ccc2O[C@@H](C)CCCCO[C@H]1CN(C)C(=O)Nc1cccc2ccccc12 — 1.8-fold lower, 1.58 µM
- CC(C)N1C/C(=C/c2cccnc2)C(=O)/C(=C/c2cccnc2)C1 — 7.9-fold higher, 22.6 µM
- COc1ccc(C(CCNCc2ccc(OC(C)C)cc2)C(C)C)cc1 (stereo unspecified) — 7.6-fold higher, 21.8 µM
- C=C1C(=O)OC2C1CCC(C)C1(O)C=CC(=O)C21C (stereo unspecified) — 4.4-fold higher, 12.6 µM
- C[C@H]1CN([C@@H](C)CO)C(=O)c2cc(NS(=O)(=O)c3ccc(Cl)cc3)ccc2O[C@H]1CN(C)Cc1ccc(Cl)c(Cl)c1 — 7.1-fold higher, 20.3 µM
- CC(=NNc1ccc2ccccc2n1)c1ccccn1 — 1.8-fold lower, 1.57 µM
- C[C@@H]1CN([C@@H](C)CO)C(=O)c2cccc(N(C)C)c2O[C@@H]1CN(C)Cc1ccc(C(=O)Nc2ccccc2N)cc1 — 7.4-fold higher, 21.1 µM
- N#C[C@H]1[C@H](c2ccc(-c3ccccc3F)cc2)[C@@H](CO)N1C(=O)Cc1ccccc1 — 2.4-fold higher, 6.75 µM
- COc1cc2c(OC(C)=O)c3c(c(-c4ccc5c(c4)OCO5)c2cc1OC)C(=O)OC3 — within 1.5-fold, 3.57 µM
- Cc1c(Cl)cccc1NC(=O)CCC(=O)N/N=C/c1ccc[nH]1 — 1.5-fold higher, 4.44 µM
- C[C@H](CO)N1C[C@H](C)[C@H](CN(C)Cc2ccc(C(F)(F)F)cc2)Oc2ccc(NC(=O)CCCCCC(=O)Nc3ccccc3N)cc2CC1=O — 4-fold higher, 11.5 µM
- CC(=O)OC1CC(OC2C(O)CC(OC3C(O)CC(OC4CCC5(C)C(CCC6C5CCC5(C)C(C7=CC(=O)OC7)CCC65O)C4)OC3C)OC2C)OC(C)C1OC1OC(CO)C(O)C(O)C1O (stereo unspecified) — 11-fold lower, 0.258 µM
- N#CC(C#N)=C1C=CC=CN1/C(=C\c1ccco1)C(=O)c1ccc(Cl)cc1 — 2.9-fold higher, 8.19 µM
- CC(=O)OC1CC(OC2C(O)CC(OC3C(O)CC(OC4CCC5(C)C(CCC6C5CC(O)C5(C)C(C7=CC(=O)OC7)CCC65O)C4)OC3C)OC2C)OC(C)C1OC1OC(CO)C(O)C(O)C1O (stereo unspecified) — 4.9-fold lower, 0.589 µM
- O=C(N/N=C/c1ccc[nH]1)c1cc(-c2ccc(Cl)cc2)nc2ccccc12 — 5.3-fold higher, 15.2 µM
- O=C(/C=C/c1cc(Br)ccc1O)c1ccco1 — 5.8-fold higher, 16.7 µM
- Nc1sc(-c2ccccc2)cc1-c1n[nH]c(=S)n1C1CCCCC1 — 1.7-fold higher, 4.99 µM
- C[C@H]1CN([C@@H](C)CO)C(=O)c2cc(NS(=O)(=O)c3ccc(Cl)cc3)ccc2O[C@H]1CN(C)Cc1ccc(C(=O)Nc2ccccc2N)cc1 — 5.1-fold higher, 14.7 µM
- COc1cc(-c2coc3c(C(=O)NCc4ccc(C(F)(F)F)cc4)cccc23)ccc1O — within 1.5-fold, 4.09 µM
- Cc1nc(N)nc(N)c1CCCc1ccc(Cl)c(Cl)c1 — 1.6-fold lower, 1.81 µM
- Cc1cc(C(=O)Nc2ccc3c(c2)C(=O)N(C)[C@@H]2CC[C@@H](CC(=O)NCc4ccc(-c5ccccc5)cc4)O[C@H]2CO3)no1 — 2.3-fold higher, 6.73 µM
- Cc1cccc(/C=C(\c2nc3ccccc3[nH]2)S(=O)(=O)c2ccccc2)c1 — 3.3-fold higher, 9.6 µM
- C[C@]12CC[C@H]3[C@@H](CC[C@]4(O)C[C@@H](O)CC[C@]34C=O)[C@@]1(O)CC[C@@H]2C1=CC(=O)OC1 — within 1.5-fold, 2.24 µM
- COc1ccc(C(C)(O)c2nc(-c3cccc(F)c3)cs2)cc1 (stereo unspecified) — 4.5-fold higher, 12.8 µM
- O=C(Sc1cccc2cccnc12)c1ccccc1Br — 3.7-fold higher, 10.5 µM
- C[C@H]1CN([C@@H](C)CO)C(=O)Cc2cc(NC(=O)C3CC3)ccc2O[C@H]1CN(C)S(=O)(=O)c1ccc(Cl)cc1 — 6-fold higher, 17.3 µM
- O=C(c1nnsc1S(=O)c1ccc(Cl)cc1)N1CCOCC1 (stereo unspecified) — 7.6-fold higher, 21.9 µM
- N#C[C@H]1[C@H](c2ccc(-c3ccccc3F)cc2)[C@@H](CO)N1C(=O)c1ccccn1 — 4.8-fold higher, 13.9 µM
- Cc1ccc(S(=O)(=O)Nc2ccc3c(c2)C(=O)N([C@H](C)CO)C[C@@H](C)[C@@H](CN(C)Cc2ccc(C(=O)Nc4ccccc4N)cc2)O3)cc1 — 3.8-fold higher, 11 µM
- COc1cccc(-c2cccc(-c3nc(C(=O)NCC(F)(F)F)cc4c3[C@H](CCO)N([S@@](=O)C(C)(C)C)C4)c2)c1 — 2-fold higher, 5.61 µM
- CN(C)c1ccc(N=Nc2nc3ccccc3n2C)cc1 — 4.7-fold higher, 13.6 µM
- Cc1nn(Cc2ccccc2Cl)c2sc(C(=O)Nc3ccccc3N3CCOCC3)cc12 — 4.6-fold higher, 13.2 µM
- Cc1cc2c(C(C)C)c(O)c(O)c(C=O)c2c(O)c1-c1c(C)cc2c(C(C)C)c(O)c(O)c(C=O)c2c1O — 1.7-fold higher, 5.02 µM
- COc1cc2oc3cc(C#Cc4ccc(N)cc4)ccc3c(=O)c2cc1OC — 2.4-fold higher, 6.86 µM
- COc1ccc(NC(=S)N=Nc2c(O)[nH]c3ccccc23)cc1 — 7-fold higher, 20.1 µM
- CCN1CCS/C1=C\C=C\C1=[N+](CC)CCS1 — 3.5-fold higher, 9.96 µM
- C[C@]12CC[C@H](O)C[C@H]1CC[C@@H]1[C@@H]2C[C@@H](O)[C@]2(C)[C@@H](C3=CC(=O)OC3)CC[C@]12O — within 1.5-fold, 3.35 µM
- CN(C)c1ccc2c(c1)[C@@H]1C[C@@H](CC(=O)NCc3ccc(Oc4ccccc4)cc3)O[C@H](CO)[C@@H]1O2 — 5-fold higher, 14.3 µM
- Nc1nc(N)c(-c2cccc(C(F)(F)F)c2)c(Cc2cccc(C(F)(F)F)c2)n1 — within 1.5-fold, 4.27 µM
- COc1ccc(CCCNC(=O)C2Cc3c(-c4ccc5c(c4)OCO5)ccnc3O2)cc1 (stereo unspecified) — within 1.5-fold, 3.47 µM
- CCCC[C@@H]1Cc2[nH][nH]c(=O)c2[C@H](c2ccc3ccccc3c2)O1 — 5.3-fold higher, 15.2 µM
- Cc1c(Cc2ccc3c(c2)OCO3)sc(NC(=O)C(C)(C)C)c1C#N — 4.6-fold higher, 13.2 µM
- COc1ccc(C2=Nn3c([n+](C)c4ccccc43)SC2)cc1 — 6.8-fold higher, 19.6 µM
- CC(C)Oc1ccc(Br)cc1C(=O)N/N=C/c1c[nH]c2ccccc12 — 7-fold higher, 20.1 µM
- Cc1ccccc1S(=O)(=O)N1CC[C@@H]2[C@@H](CO)Nc3ccc(-c4ccc(C#N)cc4)cc3[C@@H]21 — 1.7-fold higher, 4.8 µM
- C[C@@H]1CN([C@@H](C)CO)C(=O)c2cc(NS(=O)(=O)c3ccc(F)cc3)ccc2O[C@@H]1CN(C)Cc1ccc(C(=O)Nc2ccccc2N)cc1 — 6.1-fold higher, 17.5 µM
- COC(=O)C[C@@H]1CC[C@@H]2[C@H](COc3ccc(NC(=O)c4ccc(C(F)(F)F)cc4)cc3C(=O)N2C)O1 — 3.5-fold higher, 9.91 µM
- Cc1ccc(S(=O)(=O)Nc2ccc3c(c2)C(=O)N([C@@H](C)CO)C[C@@H](C)[C@@H](CN(C)Cc2ccc(C(=O)Nc4ccccc4N)cc2)O3)cc1 — 4-fold higher, 11.5 µM
- C[C@@H]1CN([C@@H](C)CO)C(=O)c2cc(N(C)C)ccc2O[C@H]1CN(C)Cc1ccc(C(=O)Nc2ccccc2N)cc1 — 7.7-fold higher, 22 µM
- COc1cccc(CN2CCC2(C)C(=O)Nc2cccc3cccnc23)c1F (stereo unspecified) — 5.1-fold higher, 14.5 µM
- CN(C[C@H]1N[C@@H](CO)[C@@H]1c1ccc(C2=CCCC2)cc1)C(=O)c1cccc(F)c1 — within 1.5-fold, 3.82 µM
- C(=NNc1ccc2ccccc2n1)c1ccccn1 — 1.9-fold lower, 1.55 µM
- COc1cccc(-c2cc(NC=O)c3ncc(-c4ccc(C(C)=O)cc4)n3c2)c1 — 1.6-fold lower, 1.78 µM

For CN(Cc1cnc2nc(N)nc(N)c2n1)c1ccc(C(=O)N[C@@H](CCC(=O)O)C(=O)O)cc1, the AC35 was 0.0194 µM and 0.0201 µM.

Test system: not listed separately
Test: as above
Conditions: TC71 Ewing sarcoma viability, CellTiter-Glo ATP, 72 h; at 26 µM (top of the series)

In the case of Nc1ccc2c(c1)OC1(CCCC1)O2, the activity change, negative = cytotoxicity is reported as 25.1% (inactive).
In the case of COc1cccc(S(=O)(=O)N(C)C[C@H]2OCc3cnnn3CCCC(=O)N([C@@H](C)CO)C[C@H]2C)c1, the activity change, negative = cytotoxicity is reported as -0.98% (inactive).
In the case of CO[C@H]1CN(C)C(=O)c2ccc(NC(=O)c3ccc(-c4ccccc4)cc3)cc2OC[C@H](C)NC[C@H]1C, the activity change, negative = cytotoxicity is reported as 7.36% (inactive).
For CCc1ccc(/C=C2\SC(=S)N(CCCC(=O)NC3=NCCS3)C2=O)cc1, the activity change, negative = cytotoxicity was 13.5% (inactive).
In the case of Cc1cc(C)cc(OCC(=O)OCC(=O)Nc2cc(S(=O)(=O)N3CCOCC3)ccc2C)c1, the activity change, negative = cytotoxicity is reported as 5.46% (inactive).
For O=C(CCCN1C(=O)/C(=C/c2ccccc2Cl)SC1=S)NNC(=O)c1ccc(Cl)cc1, the activity change, negative = cytotoxicity was -7.21% (inactive).
In the case of Cc1occc1-c1n[nH]c(=S)n1C, the activity change, negative = cytotoxicity is reported as 0.805% (inactive).
With Cc1ccc(N=C2NC(=O)/C(=C\c3cccs3)S2)cc1C the activity change, negative = cytotoxicity was -0.931% (inactive).
In the case of COc1ccc(NC(=O)c2cc3ccccc3oc2=O)cc1, the activity change, negative = cytotoxicity is reported as 7.98% (inactive).
With O=C(/C=C/c1ccc(Cl)cc1Cl)N(Cc1ccc(Cl)cc1)C1CCS(=O)(=O)C1 (stereo unspecified) the activity change, negative = cytotoxicity was 11.6% (inactive).
For C/C=C/c1ccc([C@H]2[C@@H](CO)N3C(=O)CN(S(=O)(=O)c4cccc(F)c4)C[C@@H]23)cc1, the activity change, negative = cytotoxicity was 13.2% (inactive).
With C[C@@H]1CCCCO[C@@H](CN(C)C(=O)Cc2ccccc2)[C@@H](C)CN([C@@H](C)CO)C(=O)c2cc(NS(=O)(=O)c3ccc(F)cc3)ccc2O1 the activity change, negative = cytotoxicity was -0.12% (inactive).
For COc1ccc(C=NNc2nc3ccccc3s2)cc1, the activity change, negative = cytotoxicity was -1.49% (inactive).
In the case of CCOC(=O)Cc1ccc(NC(=O)c2ccccc2Br)cc1, the activity change, negative = cytotoxicity is reported as 1.04% (inactive).
For COc1ccc(N=C(NN)c2ccc3ccccc3n2)cc1, the activity change, negative = cytotoxicity was 4.27% (inactive).
